Assay results reported in patent US20080255368A1, “Tgf-ß Gene Expression Inhibitor” (Nihon University, priority 2004, published 2008).

Experiments:
[1] = test system: TGF-β1 messenger RNA; test: Inhibition of expression of TGF-β1 messenger RNA in PMA-stimulated human mesangium cells (RT-PCR); format: cell-based; conditions: 12 hours serum-free; for inhibition of expression of TGFβ1 gene: 1×10^−6 M polyamide, 1×10^−6 M PMA stimulation, corrected with 18S
Procedure: (6) Reverse Transcription-Polymerase Chain Reaction (RT-PCR) Assay for RNA Extraction and Growth Factor mRNA
The cultured cells were washed with PBS, dissolved in 1,000 μL of Trizol (Invitrogen), mixed with 100 μL of chloroform, and centrifuged, and an upper aqueous phase thereof was mixed with an equal volume of isopropanol to precipitate RNA. The resulting RNA pellet was washed twice with 500 μL of 75% ethanol, dried, and dissolved in 10 μL of TE buffer solution. The RNA sample was denatured for 15 minutes at 65° C., and treated at room temperature for 45 minutes with 0.5 U of DNase (Gibco) in 0.5 ml of DNase buffer solution (20 mM Tris-HCl pH 8.3, 50 mM KCl, 2.5 mM MgCl2. The DNase was inactivated by adding 0.5 mL of 0.5 M EDTA and heating at 98° C. for 10 minutes.
An equal volume of RNA (1 μg/20 μL) was reverse-transcribed into single-stranded cDNA by 2.5 U/20 μL of avian myeloblastoma virus reverse transcriptase (Takara Biochemicals, Osaka, Japan) in 10 mM Tris-HCl (pH 8.3), 5 mM MgCl2, 50 mM KCl, 1 mM deoxy-NTPs, and 2.5 μM random hexamer. Then, 2 μL of the diluted cDNA product was mixed with 10 mM Tris-HCl (pH 8.3), 50 mM KCl, 4 mM MgCl2, 0.025 U/μL Taq DNA polymerase (Takara Biochemicals, Osaka, Japan), and 0.2 μM each of upstream sense primer and downstream antisense primer in a final volume of 25 μL. The sense primer (5′-[…]-3′) (SEQ ID NO: 7) and the antisense primer (5′-[…]-3′) (SEQ ID NO: 8) were used for PCR amplification of hTGF-β1 mRNA. A sense primer (5′-[…]-3′) (SEQ ID NO: 9) and an antisense primer (5′-[…]-3′) (SEQ ID NO:. 10) to human 18S ribosomal RNA were used as an internal control. PCR was performed by a Thermal Cycler (Perkin Elmer, Foster, Calif.). […] For semi-quantitative analysis of mRNA, the numbers of cycles whereby PCR products were detectable on gels were compared among various samples. cDNAs by successively 10 times dilutions (100, 10, and 1 ng) were amplified. […]

[2] = test system: double-stranded oligonucleotides corresponding to base pairs of an hTGF-β1 promoter; test: Gel shift assay of Py-Im polyamide-oligonucleotide complexes; format: binding, human; conditions: 11-base double-stranded DNA containing the target sequence, compared with lanes with DS only, FIG. 3
Procedure: Oligonucleotides were synthesized and annealed, and thereby 12 types of double-stranded oligonucleotides corresponding to base pairs of an hTGF-β1 promoter were prepared. A double-strand DNA was labeled with [γ-^32P]-ATP by T4 polynucleotide kinase. The labeled double-stranded DNA was then incubated for 15 minutes at 37° C. with a polyamide or a mismatch polyamide in a binding buffer solution (40 mM Tris, pH 7.9, 250 mM NaCl, 25 mM EDTA, 25 mM DTT, 100 mM KCl). The obtained complexes were separated by electrophoresis on 20% polyacrylamide gels and visualized by autoradiography.
The binding to target sequences of GB1105 and GBP1106 was examined by gel shift assay. Sense and antisense oligonucleotide having 11 bases containing each target sequence of Py-Im polyamide were prepared, annealed to prepare a double-stranded DNA to the target site, and incubated with each Py-Im polyamide. The obtained products were electrophoresed with polyacrylamide gel and the binding between Py-Im and the target sequence was examined.

binding to target sequence (migration of double-stranded DNA in gel shift) [2] | Structure (SMILES) | increase of expression of TGFβ1 gene ([1]; 1×10^−6 M of PMA stimulation, human mesangium cells) [%] | inhibition of expression of TGFβ1 gene [1]
– | CCCCCCCCCCCCCC(=O)O[C@@H]1[C@@H](C)[C@@]2(O)[C@@H](C=C(CO)C[C@]3(O)C(=O)C(C)=C[C@@H]23)[C@@H]2C(C)(C)[C@]12OC(C)=O [PMA, 12-o-tetradecanoylpholbol-13-acetate, reference compound] | 20 | –
decreased the migration degree | CNCCCNC(=O)CCNC(=O)c1cc(NC(=O)c2cc(NC(=O)CCNC(=O)c3cc(NC(=O)c4cc(NC(=O)c5cc(NC(=O)CCCNC(=O)c6nc(NC(=O)c7cc(NC(=O)c8nc(NC(=O)CCNC(=O)c9nc(NC(=O)c%10nc(NC(C)=O)cn%10C)cn9C)cn8C)cn7C)cn6C)cn5C)cn4C)cn3C)cn2C)cn1C [GBP1105] | – | up to 50%
decreased the migration degree | CC(=O)Nc1cn(C)c(C(=O)Nc2cc(C(=O)Nc3cn(C)c(C(=O)NCCC(=O)Nc4cc(C(=O)Nc5cc(C(=O)Nc6cc(C(=O)NCCCC(=O)Nc7cn(C)c(C(=O)Nc8cc(C(=O)Nc9cn(C)c(C(=O)NCCC(=O)Nc%10cc(C(=O)Nc%11cc(C(=O)Nc%12cc(C(=O)NCCC(=O)NCCCN(C)C)n(C)c%12)n(C)c%11)n(C)c%10)n9)n(C)c8)n7)n(C)c6)n(C)c5)n(C)c4)n3)n(C)c2)n1 [GBP1106] | – | up to 50%
